Measured values taken from PMC4094919, “Screening and hit evaluation of a chemical library against blood-stage Plasmodium falciparum” (Malaria Journal, 2014).
“Also recorded” adds a separate entry of the source. Where two headings read alike, the source gives them in different places. Marks after values point to notes of the source that are not given here.

What was measured:
[1] = system: P. falciparum NF54 strain; test: P. falciparum NF54 growth assay, 3H-hypoxanthine incorporation (hit validation); type: cell-based, Plasmodium falciparum; conditions: for EC50: Plasmodium falciparum; for Comment (activity in words on retest): hit validation, NF54 confirmatory assay
Procedure: Synthesized compounds were tested in an alternative assay, in which ^3H-hypoxanthine incorporation was measured in the chloroquine-sensitive strain NF54 (Values were measured in duplicate, 12 points/EC50).
Cultivation of Plasmodium falciparum: Plasmodium falciparum strain NF54 was obtained from the Research and Reference Reagent Resource Center (MR4) (Manassas, VA, USA). The two strains were maintained in vitro by a modification of the method of Trager and Jensen. Cultures were maintained in A positive (A^+) human erythrocytes suspended at 5% hematocrit in complete medium. […] Parasite growth and morphology were observed daily using thin smears at 100X (oil immersion) magnification following staining with Giemsa stain.
Plasmodium falciparum growth assay: The protocol assesses the compound efficacy against the growth of P. falciparum in vitro.
All cultures used in the study are albumax II adopted. […]
Following the incubation period, the plates were harvested with a FilterMate cell harvester (Perkin Elmer) onto unifilter-96 GF/B plates, washed with distilled water to remove excess radiochemical and plates were kept for drying 37°C overnight or 60°C for 1 hr. Fifty µL of Microscint scintillation cocktail (Microscint-High Efficiency LSC-Cocktail; Perkin Elmer) added in the unifilter-96 GF/B plates and kept for 15-20 min. The plates were counted in a Top Count NXT microplate scintillation and luminescence counter (Perkin Elmer). The mean values for [^3H]-hypoxanthine incorporation in parasitized control and non-parasitized control erythrocytes were calculated.
Assay data were analysed using Graph pad prism ver.5 software. A variable sigmoid dose response curve is plotted keeping log concentrations at X-axis and % inhibition at Y-axis.

P. falciparum 3D7 strain = test: P. falciparum 3D7 growth inhibition, DAPI imaging (HTS screen); type: cell-based
Procedure: The P. falciparum 3D7 strain was used for the primary screen.
For the screening of the chemical library, a validated high throughput screening (HTS) method was used as reported by Duffy and Avery. In brief, intra-erythrocyte P. falciparum 3D7 parasites incubated with the compounds for 72 hours were stained with 4′-6-diamidino-2-phenylindole (DAPI) and imaged using a high throughput confocal imaging system. To ascertain inhibition of parasite growth, images of fluorescent parasites were translated, using a mathematical algorithm, into a numerical output of classified spots (parasites) as determined by fluorescence size and intensity.
EC50 and CC50 values were calculated for compounds which presented an Emax plateau using GraphPad Prism.

[2] = NF54, heading bounds of Figure 8: not reconfirming / reconfirming / newly synthesized compounds, read-out: EC50 (bound in Figure 8)
[3] = P. falciparum NF54 strain, 3H-hypoxanthine incorporation, newly synthesized sample, read-out: EC50 (NF54)
[4] = negative logarithm of the molar EC50, NF54, read-out: pEC50 (NF54) (converted)
[5] = Plasmodium falciparum; P. falciparum 3D7 strain, DAPI imaging, HTS screen, library sample; read-out: EC50 (3D7)
[6] = Plasmodium falciparum; negative logarithm of the molar EC50, 3D7; read-out: pEC50 (3D7) (converted)
[7] = 3D7 / NF54, range over HTS (3D7) and retest after synthesis (NF54), read-out: EC50 range over the two assays

| SMILES | EC50 [1, 2] | EC50 [1, 3] | EC50 [1, 4] | Comment (activity in words on retest) [1] | EC50 (P. falciparum 3D7 strain; [5]) | EC50 (P. falciparum 3D7 strain; [6]) | further results |
| --- | --- | --- | --- | --- | --- | --- | --- |
| Cc1ccc(S(=O)(=O)N2C[C@H](C)N(Cc3ccc(C(=O)NC4CC4)cc3)C[C@@H]2C)cc1 [Compound 15a] | < 1000 nM | 44 nM | 39.8 nM | Hit |  |  | Difference in activity between the two enantiomers ([1]; 15a versus 15b, NF54 EC50): more than 15 fold |
| O=C(O)[C@H]1Cc2c([nH]c3ccccc23)[C@H](c2ccc(Cl)cc2Cl)N1 [Compound 14d] | < 1000 nM | > 10000 nM | > 10000 nM | Inactive |  |  |  |
| Cc1c(Cc2c(C)n(Cc3ccccc3C#N)c3ccccc23)c2ccccc2n1Cc1ccccc1C#N [Compound 2, 2,2'-((3,3'-methylenebis(2-methyl-1H-indole-3,1-diyl))bis(methylene))dibenzonitrile] |  | 763 nM | 794 nM | EC50 in the same range as initially described during the HTS |  |  |  |
| O=C(c1cccc(-c2noc(CN(CCN3CCCCC3)C(=O)c3ccccc3)n2)c1)N1CCCNCC1 [Compound 10, N-((3-(3-(1,4-diazepane-1-carbonyl)phenyl)-1,2,4-oxadiazol-5-yl)methyl)-N-(2-(piperidin-1-yl)ethyl)benzamide] | < 1000 nM | 60 nM | 63.1 nM | Validated hit | 181 nM | 200 nM | EC50 [1, 7]: 60 to 181 nM |
| O=C(O)C1Cc2c([nH]c3ccccc23)C(c2ccc(Cl)cc2Cl)N1 (centres unmarked) [Compound 14] |  |  |  |  | 350 nM | 316 nM |  |
| CCOc1ncccc1C(=O)Nc1cc(C(F)(F)F)ccc1Oc1cccc(OC)c1 [Compound 9, 2-ethoxy-N-(2-(3-methoxyphenoxy)-5-(trifluoromethyl)phenyl)nicotinamide] | < 1000 nM | 309 nM | 316 nM | Validated hit | 393 nM | 398 nM | EC50 [1, 7]: 309 to 393 nM |
| O=C(NCC(c1ccsc1)N1CCCCCC1)c1ccc(C(F)(F)F)cc1 (centres unmarked) [Compound 11, N-(2-(azepan-1-yl)-2-(thiophen-3-yl)ethyl)-4-(trifluoromethyl)benzamide] | < 1000 nM | 518 nM | 501 nM | Validated hit | 433 nM | 398 nM |  |
| COc1ccc(-c2cnc3sc(NC4CCC(N)CC4)nn23)cn1 (centres unmarked) [Compound 8, N1-(5-(6-methoxypyridin-3-yl)imidazo[2,1-b][1,3,4]thiadiazol-2-yl)cyclohexane-1,4-diamine] |  |  |  |  |  |  | EC50 (P. falciparum 3D7 strain; Plasmodium falciparum, 3D7, read-out: EC50 (3D7)): 297 nM; EC50 (P. falciparum 3D7 strain; Plasmodium falciparum, 3D7, read-out: pEC50 (3D7) (converted)): 316 nM; EC50 ([1]; 3D7 / NF54, read-out: EC50 range over the two assays): 284 to 287 nM; EC50 ([1]; NF54, read-out: EC50 (NF54)): 284 nM; EC50 ([1]; NF54, read-out: EC50 (bound in Figure 8)): < 1000 nM; EC50 ([1]; NF54, read-out: pEC50 (NF54) (converted)): 316 nM |
| CC(=O)N1c2ccccc2[C@@H](c2ccccc2)[C@@H]1C(=O)O (racemic) [Compound 4a, Rac (2R,3R)-1-acetyl-3-phenylindoline-2-carboxylic acid] |  | > 10000 nM | > 10000 nM | did not confirm activity; also recorded: Inactive |  |  |  |
| CC(=O)N1c2ccccc2C(c2ccccc2)C1C(=O)O (centres unmarked) [Compound 4] | > 1000 nM |  |  |  | 172 nM | 158 nM |  |
| O=C(Nc1cccc(Cl)c1)N1CC2(CCN(Cc3ccccc3)CC2)c2ccccc21 [Compound 17, 1'-benzyl-N-(3-chlorophenyl)spiro[indoline-3,4'-piperidine]-1-carboxamide] | < 1000 nM | 309 nM | 316 nM | Hit |  |  |  |
| COc1ccc2c(c1)C1(Nc3ccccc3-c3nc4ccccc4n31)C(=O)N2 (centres unmarked) [Compound 12, 5'-methoxy-5H-spiro[benzo[4,5]imidazo[1,2-c]quinazoline-6,3'-indolin]-2'-one] | < 1000 nM | 60 nM | 63.1 nM | Validated hit, CHEMBL1545915^f) | 928 nM | 1000 nM |  |
| Cc1ccc(S(=O)(=O)N2CCN(Cc3ccc(C(=O)NC4CC4)cc3)CC2)cc1 [Compound 15c, N-cyclopropyl-4-((4-tosylpiperazin-1-yl)methyl)benzamide] | < 1000 nM | 535 nM | 501 nM | Hit |  |  |  |
| O=C(Nc1cc(=O)[nH]c2nc(-c3ccccc3)nn12)C1CCCCC1 [Compound 7, N-(5-oxo-2-phenyl-4,5-dihydro-[1,2,4]triazolo[1,5-a]pyrimidin-7-yl)cyclohexanecarboxamide] | < 1000 nM | 450 nM | 501 nM | Validated hit, CHEMBL587310^f) | 648 nM | 631 nM | EC50 [1, 7]: 450 to 648 nM |
| O=C(O)[C@@H]1Cc2c([nH]c3ccccc23)[C@@H](c2ccc(Cl)cc2Cl)N1 [Compound 14b, (1R,3S)-1-(2,4-dichlorophenyl)-2,3,4,9-tetrahydro-1H-pyrido[3,4-b]indole-3-carboxylic acid] | < 1000 nM | 167 nM | 158 nM | Hit |  |  |  |
| Cc1ccc(S(=O)(=O)N2CC(C)N(Cc3ccc(C(=O)NC4CC4)cc3)CC2C)cc1 (centres unmarked) [Compound 15, N-cyclopropyl-4-((2,5-dimethyl-4-tosylpiperazin-1-yl)methyl)benzamide] |  |  |  |  | 678 nM |  |  |
| Cc1ccc(S(=O)(=O)N2C[C@@H](C)N(Cc3ccc(C(=O)NC4CC4)cc3)C[C@H]2C)cc1 [Compound 15b] | < 1000 nM | 679 nM | 631 nM | Hit |  |  |  |
| CC(=O)N1CCN(Cc2coc(Cc3ccccc3)n2)CC1 [Compound 6, 1-(4-((2-benzyloxazol-4-yl)methyl)piperazin-1-yl)ethanone] | > 1000 nM | > 10000 nM | > 10000 nM | Inactive | < 10 nM | < 10 nM |  |
| Cc1csc(Sc2ncnc3sccc23)n1 [Compound 13, 4-((4-methylthiazol-2-yl)thio)thieno[2,3-d]pyrimidine] | < 1000 nM | 102 nM | 100 nM | Validated hit | 194 nM | 200 nM | EC50 [1, 7]: 102 to 194 nM |
| O=C(O)[C@@H]1Cc2c([nH]c3ccccc23)[C@H](c2ccc(Cl)cc2Cl)N1 [Compound 14a, (1S,3S)-1-(2,4-dichlorophenyl)-2,3,4,9-tetrahydro-1H-pyrido[3,4-b]indole-3-carboxylic acid] | < 1000 nM | > 10000 nM | > 10000 nM | Inactive |  |  |  |
| CC(C)=CCN1CCC2(CC1)CN(C(=O)Nc1cccc(C#N)c1)c1ccc(C)cc12 [Compound 16] |  |  |  |  |  |  | EC50 (P. falciparum 3D7 strain; Plasmodium falciparum, 3D7; read-out: EC50 (3D7)): 990 nM; EC50 (P. falciparum 3D7 strain; Plasmodium falciparum, 3D7; read-out: Potency at HTS (3D7)): < 1000 nM; EC50 (P. falciparum 3D7 strain; Plasmodium falciparum, 3D7; read-out: pEC50 (3D7) (converted)): 1000 nM |
| CC(C)(C)CC(=O)N(Cc1ccc(NC(=O)c2ccc(C#N)cc2)cc1)CC(C)(C)CN [Compound 3, N-(4-((N-(3-amino-2,2-dimethylpropyl)-3,3-dimethylbutanamido)methyl)phenyl)-4-cyanobenzamide] | > 1000 nM | 3000 nM | 3160 nM | Weakly active | 222 nM | 200 nM |  |
| COc1ccc(NC(=O)c2cnn(-c3ccccc3)c2-c2ccccc2)c(OC)c1 [Compound 5, N-(2,4-dimethoxyphenyl)-1,5-diphenyl-1H-pyrazole-4-carboxamide] | > 1000 nM | 3900 nM | 3980 nM | Weakly active | 870 nM | 794 nM | EC50 ([1]; P. falciparum NF54, after synthesis, read-out: EC50 (NF54)): ~4000 nM |
| O=C(O)[C@H]1Cc2c([nH]c3ccccc23)[C@@H](c2ccc(Cl)cc2Cl)N1 [Compound 14c] | < 1000 nM | 4200 nM | 3980 nM | weak activity; also recorded: Weakly active |  |  |  |
